Molecular target: IMPDH human type II (Homo sapiens, UniProt P12268)
Assay: IMPDH Activity Inhibition Assay
Format: biochemical
Conditions: spectrophotometric NADH formation at 340 nm, 37° C., tight-binding equation of Henderson
Protocol: IMP dehydrogenase activity was assayed following an adaptation of the method first reported by Magasanik. [B. Magasanik et al., J. Biod. Chem., 226, p. 339 (1957), the disclosure of which is herein incorporated by reference]. Enzyme activity was measured spectrophotometrically, by monitoring the increase in absorbance at 340 nm due to the formation of NADH (ε340 is 6220 M^−1 cm^−1). The reaction mixture contained 0.1 M Tris pH 8.0, 0.1 M KCl, 3 mM EDTA, 2 mM DTT, […] and enzyme (IMPDH human type II) at a concentration of 15 to 50 nM. This solution is incubated at 37° C. for 10 minutes. The reaction is started by adding NAD to a final concentration of […] and the initial rate is measured by following the linear increase in absorbance at 340 nm for 10 minutes. For reading in a standard spectrophotometer (path length 1 cm) the final volume in the cuvette is 1.0 ml. The assay has also been adapted to a 96 well microtiter plate format; in this case the concentrations of all the reagents remain the same and the final volume is decreased to 200 μl.
For the analysis of inhibitors, the compound in question is dissolved in DMSO to a final concentration of 20 mM and added to the initial assay mixture for preincubation with the enzyme at a final volume of 2-5% (v/v). The reaction is started by the addition of NAD, and the initial rates measured as above. Ki determinations are made by measuring the initial, velocities in the presence of varying amounts of inhibitor and fitting the data using the tight-binding equation of Henderson (Henderson, P. J. F. (1972) Biochem. J. 127, 321].

Row | Ki [µM] | SMILES
1 | < 10 | CCC(C)c1ccc(OC)c(NC(=O)c2cc3ccccc3cc2O)c1 (stereo not shown) [Compound 164]
2 | 10 to 20 | O=C(Nc1ccccc1Br)c1cc2ccccc2cc1O [Compound 129]
3 | 10 to 20 | COc1ccc(C)cc1NC(=O)Sc1ccccc1O [Compound 306]
4 | 10 to 20 | COc1ccccc1NS(=O)(=O)c1cc(Cl)cc(Cl)c1O [Compound 321]
5 | 10 to 20 | O=C(Nc1ccccc1Oc1ccccc1)c1ccc2ccccc2c1O [Compound 193]
6 | 10 to 20 | COc1ccc(OC)c(S(=O)(=O)Nc2cccc(C#N)c2)c1 [Compound 309]
7 | < 10 | O=C(Nc1ccccc1Oc1ccccc1)c1cc2ccccc2cc1O [Compound 183]
8 | < 10 | O=C(Nc1ccc(C(F)(F)F)cc1)c1cc2ccccc2cc1O [Compound 124]
9 | < 10 | CCCCC(=O)Oc1cc2ccc(Br)cc2cc1C(=O)Nc1ccccc1OC [Compound 153]
10 | > 20 | COc1ccc(C)cc1NC(=O)c1ccc(C)cc1O [Compound 198]
11 | < 10 | C=CCOc1cc2ccc(Br)cc2cc1C(=O)Nc1ccccc1OC [Compound 140]
12 | 10 to 20 | COc1ccc(OC)c(S(=O)(=O)NCc2c(F)cccc2Cl)c1 [Compound 314]
13 | 10 to 20 | Cc1ccccc1NC(=O)c1cc2ccccc2cc1O [Compound 132]
14 | 10 to 20 | COc1cccc(NC(=O)c2cc3ccccc3cc2O)c1OC [Compound 184]
15 | 10 to 20 | CCOc1ccccc1NC(=O)c1cc2ccccc2cc1O [Compound 167]
16 | 10 to 20 | COc1ccc(NC(=O)c2cc3ccccc3cc2O)c(OC)c1 [Compound 186]
17 | 10 to 20 | COc1ccccc1S(=O)(=O)Nc1ccccc1O [Compound 324]
18 | 10 to 20 | COc1ccc(OC)c(S(=O)(=O)Nc2ccccc2Cl)c1 [Compound 315]

Row | Ki [µM] | SMILES
19 | 10 to 20 | COc1ccccc1NS(=O)(=O)c1ccc2ccccc2c1 [Compound 302]
20 | > 20 | COc1cccc(NC(=O)c2cc3ccccc3cc2O)c1 [Compound 119]
21 | < 10 | COc1ccccc1NCc1cc2cc(Br)ccc2cc1O [Compound 115]
22 | < 10 | COc1cc(NC(=O)c2cc3ccccc3cc2O)c(OC)cc1Cl [Compound 170]
23 | 10 to 20 | O=C(Nc1cccc(Br)c1)c1cc2ccccc2cc1O [Compound 130]
24 | 10 to 20 | COc1ccccc1NC(=O)c1cc2ccccc2cc1N [Compound 142]
25 | > 20 | O=C(Nc1ccccc1Oc1ccccc1)c1cc(Br)ccc1O [Compound 204]
26 | 10 to 20 | COc1ccccc1NC(=O)c1ccc2ccccc2c1 [Compound 110]
27 | 10 to 20 | CCCCC(=O)Oc1cc2ccccc2cc1C(=O)Nc1ccccc1OC [Compound 148]
28 | < 10 | O=C(Nc1ccc(Cl)cc1)c1cc2ccccc2cc1O [Compound 161]
29 | 10 to 20 | COc1ccc(OC)c(S(=O)(=O)Nc2ccc(C#N)cc2)c1 [Compound 310]
30 | 10 to 20 | CCS(=O)(=O)c1ccc(OC)c(NC(=O)c2cc3ccccc3cc2O)c1 [Compound 159]
31 | < 10 | COc1cc(NC(=O)c2cccc(CCNC(=O)O[C@H]3CCOC3)c2)ccc1-c1cnco1 [Compound 109]
32 | < 10 | COc1ccccc1C(=O)Nc1cc2ccccc2cc1O [Compound 139]
33 | 10 to 20 | COc1cccc(OC)c1S(=O)(=O)Nc1ccc(C(C)(C)C)cc1 [Compound 311]
34 | 10 to 20 | C=CCN(C(=O)c1cc2ccccc2cc1O)c1ccccc1OC [Compound 106]
35 | < 10 | COc1cc(NC(=O)Cc2cccc(CNC(=O)O[C@H]3CCOC3)c2)ccc1-c1cnco1 [Compound 325]
36 | < 10 | COc1ccccc1NC(=O)c1cc2ccccc2cc1O [Compound 100]

Row | SMILES | Ki [µM]
37 | COc1cc(OC)c(NC(=O)c2cc3ccccc3cc2O)cc1Cl [Compound 171] | 10 to 20

From US6653309B1, “Inhibitors of IMPDH enzyme technical field of the invention” (Vertex Pharmaceuticals Incorporated, priority 1999, dated 2003)
